Measured values: article PMC9979702 (Bioorganic & Medicinal Chemistry Letters, 2023)

What was measured:
[1] = tested on: SARS-CoV-2; type: cell-based; settings: Vero cells
[2] = target: hERG (Homo sapiens, UniProt Q12809); settings: even at 100 µM
Sequence of hERG (Q12809 whole entry): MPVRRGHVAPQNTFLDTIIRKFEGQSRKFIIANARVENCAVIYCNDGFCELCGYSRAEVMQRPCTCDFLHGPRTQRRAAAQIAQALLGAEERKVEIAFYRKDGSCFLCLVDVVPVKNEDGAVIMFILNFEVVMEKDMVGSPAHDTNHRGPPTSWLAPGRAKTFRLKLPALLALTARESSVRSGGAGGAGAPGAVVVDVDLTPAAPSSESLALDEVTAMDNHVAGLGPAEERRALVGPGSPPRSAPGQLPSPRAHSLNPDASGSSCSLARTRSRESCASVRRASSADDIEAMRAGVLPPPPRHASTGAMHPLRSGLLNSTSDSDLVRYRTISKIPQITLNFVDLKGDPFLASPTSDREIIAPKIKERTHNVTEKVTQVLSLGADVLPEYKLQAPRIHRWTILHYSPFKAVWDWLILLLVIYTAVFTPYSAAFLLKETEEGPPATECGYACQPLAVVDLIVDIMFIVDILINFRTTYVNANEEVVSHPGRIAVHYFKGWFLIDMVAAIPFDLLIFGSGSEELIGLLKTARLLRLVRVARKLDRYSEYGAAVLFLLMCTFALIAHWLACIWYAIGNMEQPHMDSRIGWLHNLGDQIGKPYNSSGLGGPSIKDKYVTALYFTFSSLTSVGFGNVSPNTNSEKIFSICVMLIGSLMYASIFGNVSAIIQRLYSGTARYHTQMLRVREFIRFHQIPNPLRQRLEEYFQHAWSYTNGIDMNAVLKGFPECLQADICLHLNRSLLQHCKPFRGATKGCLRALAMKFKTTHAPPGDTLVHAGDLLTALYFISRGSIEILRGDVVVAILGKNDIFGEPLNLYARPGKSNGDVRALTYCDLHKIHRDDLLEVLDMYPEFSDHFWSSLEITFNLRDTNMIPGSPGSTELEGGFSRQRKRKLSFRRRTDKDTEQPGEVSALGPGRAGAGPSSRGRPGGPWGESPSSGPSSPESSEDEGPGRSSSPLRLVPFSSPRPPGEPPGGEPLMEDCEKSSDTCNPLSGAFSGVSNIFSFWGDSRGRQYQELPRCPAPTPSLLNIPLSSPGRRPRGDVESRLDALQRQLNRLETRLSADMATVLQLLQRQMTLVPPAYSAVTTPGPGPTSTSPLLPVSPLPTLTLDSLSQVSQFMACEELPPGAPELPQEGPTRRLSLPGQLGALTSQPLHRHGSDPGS

Structure (SMILES)	antiviral activity against SARS-CoV-2 (in words) [1]	hERG binding (in words) [2]
CN(C)CCCNc1[nH]c2cc(Cl)ccc2c(=O)c1C(=O)O [Compound 7a, 7-chloro-2-((3-(dimethylamino)propyl)amino)-4-oxo-1,4-dihydroquinoline-3-carboxylic acid]	no activity	
O=C(O)c1c(Nc2cccc(F)c2)[nH]c2cc(Cl)ccc2c1=O [Compound 9b, 7-chloro-2-((3-fluorophenyl)amino)-4-oxo-1,4-dihydroquinoline-3-carboxylic acid]		no hERG binding was detected
O=C(O)c1c(Nc2cccc(F)c2)[nH]c2cc(F)c(F)cc2c1=O [Compound 9f, 6,7-difluoro-2-((3-fluorophenyl)amino)-4-oxo-1,4-dihydroquinoline-3-carboxylic acid]	had antiviral activity	
O=c1cc(Nc2cccc(F)c2)[nH]c2cc(F)c(F)cc12 [Compound 10, 6,7-difluoro-2-((3-fluorophenyl)amino)quinolin-4(1H)-one]	no activity	
